From patent US6710064B2, “Hydantoin compounds useful as anti-inflammatory agents” (Bristol-Myers Squibb Co., priority 2000, dated 2004)

melting point: 135 °C
SMILES: O=C1[C@H]2C[C@@H](OCc3ccc(Br)cc3)CN2C(=O)N1c1cc(Cl)cc(Cl)c1 [Example 6, (7aR,6R)-2-(3,5-dichloro-phenyl)-6-(4-bromobenzyloxy)-tetrahydro-pyrrolo[1,2-c]imidazole-1,3-dione]
